Experimental data taken from ChEMBL document CHEMBL3734659, “Identification of tris-(phenylalkyl)amines as new selective h5-HT2Breceptor antagonists” (Medchemcomm, 2015).
Calls of active or inactive are those of the source. The rule behind the calls is not given here.

Key:
[1] = Displacement of [3H]Pentazocine from Guinea pig sigma 1 receptor after 90 mins by scintillation counting method; design: species or system Cavia porcellus
[2] = molecular target: 5-hydroxytryptamine receptor 2A (Homo sapiens, UniProt P28223); assay: Displacement of [3H]ketanserin from human recombinant 5-HT2A receptor expressed in HEKT cell membrane at 10 uM after 90 mins by scintillation counting method; assay type: cell membranes
Sequence of 5-hydroxytryptamine receptor 2A (P28223 whole entry): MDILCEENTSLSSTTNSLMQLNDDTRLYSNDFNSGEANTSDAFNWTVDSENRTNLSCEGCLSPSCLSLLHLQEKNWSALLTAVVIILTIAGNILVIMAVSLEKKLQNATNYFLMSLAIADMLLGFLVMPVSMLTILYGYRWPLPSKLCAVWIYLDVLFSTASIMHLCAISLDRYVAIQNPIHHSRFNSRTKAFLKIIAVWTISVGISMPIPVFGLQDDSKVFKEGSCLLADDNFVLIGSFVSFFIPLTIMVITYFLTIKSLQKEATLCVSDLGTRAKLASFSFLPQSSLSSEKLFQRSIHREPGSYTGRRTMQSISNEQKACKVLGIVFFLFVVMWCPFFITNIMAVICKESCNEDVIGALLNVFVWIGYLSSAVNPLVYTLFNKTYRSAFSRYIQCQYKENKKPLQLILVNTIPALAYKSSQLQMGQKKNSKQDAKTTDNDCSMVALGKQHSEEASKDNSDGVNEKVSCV

[3] = molecular target: Muscarinic acetylcholine receptor M2 (Homo sapiens) (UniProt P08172); assay: Displacement of [3H]NMS from human Muscarinic acetylcholine M2 receptor stably expressed in CHO cell after 90 mins by scintillation counting method; assay type: cell-based
[4] = molecular target: Muscarinic acetylcholine receptor M1 (Homo sapiens) (UniProt P11229); assay: Displacement of [3H]QNB from human Muscarinic acetylcholine M1 receptor stably expressed in CHO cell after 90 mins by scintillation counting method; assay type: cell-based
[5] = molecular target: 5-hydroxytryptamine receptor 3A (Homo sapiens) (UniProt P46098); assay: Displacement of [3H]GR65630 from human recombinant 5-HT3 receptor expressed in HEKT cell membrane after 90 mins by scintillation counting method; assay type: cell membranes
[6] = molecular target: Muscarinic acetylcholine receptor M5 (Homo sapiens) (UniProt P08912); assay: Displacement of [3H]NMS from human Muscarinic acetylcholine M5 receptor stably expressed in CHO cell after 90 mins by scintillation counting method; assay type: cell-based
[7] = molecular target: 5-hydroxytryptamine receptor 1A (Homo sapiens, UniProt P08908); assay: Displacement of [3H]Way100635 from human recombinant 5-HT1A receptor stably expressed in CHO cell membrane after 90 mins by scintillation counting method; assay type: cell membranes
[8] = molecular target: Delta-type opioid receptor (Homo sapiens) (UniProt P41143); assay: Displacement of [3H]DADLE from human delta-opioid receptor stably expressed in HEK cell membrane after 90 mins by scintillation counting method; assay type: cell membranes; conditions: HEK293
Sequence of Delta-type opioid receptor (Homo sapiens) (P41143 whole entry): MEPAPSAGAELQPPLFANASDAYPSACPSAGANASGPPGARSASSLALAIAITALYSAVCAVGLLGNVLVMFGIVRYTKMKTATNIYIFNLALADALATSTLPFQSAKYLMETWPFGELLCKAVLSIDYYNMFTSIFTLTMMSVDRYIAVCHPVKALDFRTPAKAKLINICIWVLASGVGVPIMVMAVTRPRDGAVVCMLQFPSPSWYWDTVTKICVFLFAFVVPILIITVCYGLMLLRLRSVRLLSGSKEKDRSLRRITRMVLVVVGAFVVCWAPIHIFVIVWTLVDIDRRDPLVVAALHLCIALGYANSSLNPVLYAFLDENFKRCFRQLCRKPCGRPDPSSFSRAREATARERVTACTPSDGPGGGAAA

[9] = molecular target: Muscarinic acetylcholine receptor M4 (Homo sapiens) (UniProt P08173); assay: Displacement of [3H]NMS from human Muscarinic acetylcholine M4 receptor stably expressed in CHO cell after 90 mins by scintillation counting method; assay type: cell-based
[10] = molecular target: Beta-3 adrenergic receptor (Homo sapiens) (UniProt P13945); assay: Displacement of [3H]CGP12177 from human recombinant beta 3 receptor expressed in HEK Flp-In cells after 90 mins by scintillation counting method; assay type: cell-based; conditions: HEK293
Sequence of Beta-3 adrenergic receptor (Homo sapiens) (P13945 whole entry, looked up): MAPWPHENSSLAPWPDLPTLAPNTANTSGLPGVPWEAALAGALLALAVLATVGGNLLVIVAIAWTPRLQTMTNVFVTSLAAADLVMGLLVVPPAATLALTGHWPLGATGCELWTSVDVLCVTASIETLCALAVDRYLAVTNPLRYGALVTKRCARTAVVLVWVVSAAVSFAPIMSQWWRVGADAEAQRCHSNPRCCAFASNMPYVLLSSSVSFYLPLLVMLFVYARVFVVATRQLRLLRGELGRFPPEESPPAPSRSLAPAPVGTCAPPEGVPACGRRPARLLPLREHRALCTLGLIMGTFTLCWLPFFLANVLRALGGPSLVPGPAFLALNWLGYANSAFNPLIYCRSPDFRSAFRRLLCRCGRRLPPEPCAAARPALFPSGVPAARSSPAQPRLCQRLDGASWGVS

[11] = molecular target: 5-hydroxytryptamine receptor 6 (Homo sapiens) (UniProt P50406); assay: Displacement of [3H]LSD from human recombinant 5-HT6 receptor stably expressed in HEK cell membrane by scintillation counting method; assay type: cell membranes; conditions: HEK293
Sequence of 5-hydroxytryptamine receptor 6 (Homo sapiens) (P50406 whole entry): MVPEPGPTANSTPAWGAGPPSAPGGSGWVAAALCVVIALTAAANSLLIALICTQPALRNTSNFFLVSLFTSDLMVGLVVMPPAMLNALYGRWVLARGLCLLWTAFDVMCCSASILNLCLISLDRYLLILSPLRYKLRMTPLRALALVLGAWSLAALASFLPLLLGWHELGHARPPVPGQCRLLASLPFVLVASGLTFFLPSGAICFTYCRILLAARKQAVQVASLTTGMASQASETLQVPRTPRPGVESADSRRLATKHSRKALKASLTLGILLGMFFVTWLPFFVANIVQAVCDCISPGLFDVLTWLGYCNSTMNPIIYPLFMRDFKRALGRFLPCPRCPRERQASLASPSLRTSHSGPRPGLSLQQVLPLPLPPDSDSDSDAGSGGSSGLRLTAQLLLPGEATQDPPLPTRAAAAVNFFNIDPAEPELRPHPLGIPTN

[12] = molecular target: 5-hydroxytryptamine receptor 7 (Homo sapiens, UniProt P34969); assay: Displacement of [3H]LSD from human recombinant 5-HT7A receptor stably expressed in HEKT cell membrane after 90 mins by scintillation counting method; assay type: cell membranes
[13] = molecular target: T1, 5-hydroxytryptamine receptor 2C (Homo sapiens) (UniProt P28335); assay: Displacement of [3H]mesulergine from human recombinant 5-HT2C receptor expressed in Flp-IN HEK cell membrane at 10 uM after 90 mins by scintillation counting method; assay type: cell membranes; conditions: HEK293
T1 sequence (whole entry): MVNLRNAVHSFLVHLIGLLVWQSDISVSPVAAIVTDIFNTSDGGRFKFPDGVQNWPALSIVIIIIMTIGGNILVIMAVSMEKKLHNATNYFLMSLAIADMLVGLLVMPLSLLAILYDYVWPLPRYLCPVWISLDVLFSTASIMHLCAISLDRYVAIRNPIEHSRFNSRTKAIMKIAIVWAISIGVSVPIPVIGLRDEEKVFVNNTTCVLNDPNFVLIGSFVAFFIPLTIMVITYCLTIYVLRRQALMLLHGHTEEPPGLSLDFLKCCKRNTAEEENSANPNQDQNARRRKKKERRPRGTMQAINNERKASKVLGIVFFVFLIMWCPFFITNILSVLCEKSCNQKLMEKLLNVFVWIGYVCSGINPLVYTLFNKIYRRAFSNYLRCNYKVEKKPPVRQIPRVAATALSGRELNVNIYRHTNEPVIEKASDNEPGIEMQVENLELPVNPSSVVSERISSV

[14] = molecular target: Alpha-1B adrenergic receptor (Homo sapiens) (UniProt P35368); assay: Displacement of [3H]Prazosin from human recombinant alpha 1B receptor expressed in HEKT cell membrane after 90 mins by scintillation counting method; assay type: cell membranes
Sequence of Alpha-1B adrenergic receptor (Homo sapiens) (P35368 whole entry): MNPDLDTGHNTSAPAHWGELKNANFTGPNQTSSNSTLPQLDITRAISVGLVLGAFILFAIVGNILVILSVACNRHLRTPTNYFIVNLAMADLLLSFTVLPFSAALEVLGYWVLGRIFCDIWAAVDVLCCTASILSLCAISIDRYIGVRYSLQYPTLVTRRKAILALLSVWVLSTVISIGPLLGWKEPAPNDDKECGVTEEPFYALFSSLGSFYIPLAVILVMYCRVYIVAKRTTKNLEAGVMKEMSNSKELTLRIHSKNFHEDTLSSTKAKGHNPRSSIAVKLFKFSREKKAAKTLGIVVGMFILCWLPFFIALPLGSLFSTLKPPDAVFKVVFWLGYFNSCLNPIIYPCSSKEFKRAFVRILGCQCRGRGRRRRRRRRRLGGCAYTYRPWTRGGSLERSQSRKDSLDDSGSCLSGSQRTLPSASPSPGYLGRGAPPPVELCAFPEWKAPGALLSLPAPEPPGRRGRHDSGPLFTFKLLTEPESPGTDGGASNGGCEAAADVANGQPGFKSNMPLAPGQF

[15] = Displacement of [3H]DTG from sigma 2 receptor stable expressed in rat PC12 cells after 90 mins by scintillation counting method; assay type: cell-based; conditions: pc-12
[16] = molecular target: Sodium-dependent dopamine transporter (Homo sapiens, UniProt Q01959); assay: Displacement of [3H]WIN35428 from human dopamine transporter stably expressed in HEK293 cells after 30 mins by neurotransmitter transporter uptake assay; assay type: cell-based
Sequence of Sodium-dependent dopamine transporter (Q01959 whole entry): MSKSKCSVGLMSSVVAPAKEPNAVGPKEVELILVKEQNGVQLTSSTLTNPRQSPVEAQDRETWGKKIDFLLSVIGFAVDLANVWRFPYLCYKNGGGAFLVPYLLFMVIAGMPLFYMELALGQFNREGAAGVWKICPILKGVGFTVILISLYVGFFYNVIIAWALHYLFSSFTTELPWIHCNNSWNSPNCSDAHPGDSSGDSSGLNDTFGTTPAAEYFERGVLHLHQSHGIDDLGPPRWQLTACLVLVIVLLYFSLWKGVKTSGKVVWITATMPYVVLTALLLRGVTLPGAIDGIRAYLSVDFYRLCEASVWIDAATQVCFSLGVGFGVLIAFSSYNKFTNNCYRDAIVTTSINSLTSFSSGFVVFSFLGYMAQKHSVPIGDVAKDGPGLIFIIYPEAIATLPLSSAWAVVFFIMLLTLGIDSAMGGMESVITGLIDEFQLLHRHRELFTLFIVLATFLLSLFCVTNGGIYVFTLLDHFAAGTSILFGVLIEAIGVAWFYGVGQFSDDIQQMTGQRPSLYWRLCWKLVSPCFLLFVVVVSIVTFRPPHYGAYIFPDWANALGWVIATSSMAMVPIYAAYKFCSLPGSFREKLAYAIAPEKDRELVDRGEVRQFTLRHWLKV

[17] = molecular target: D(1B) dopamine receptor (Homo sapiens) (UniProt P21918); assay: Displacement of [3H]SCH23390 from human recombinant dopamine D5 receptor expressed in HEKT cell membrane after 90 mins by scintillation counting method; assay type: cell membranes
[18] = molecular target: Histamine H3 receptor (Homo sapiens) (UniProt Q9Y5N1); assay: Displacement of [3H]alpha-methylhistamine from human H3 Histamine receptors expressed in HEK Flp-In cell after 90 mins by scintillation counting method; assay type: cell-based; conditions: HEK293
[19] = molecular target: T2, 5-hydroxytryptamine receptor 2B (Homo sapiens, UniProt P41595); assay: Displacement of [3H]LSD from human recombinant 5-HT2B receptor stably expressed in HEK cell membrane at 10 uM after 90 mins by scintillation counting method; assay type: cell membranes; conditions: HEK293
T2 sequence (P41595 whole entry): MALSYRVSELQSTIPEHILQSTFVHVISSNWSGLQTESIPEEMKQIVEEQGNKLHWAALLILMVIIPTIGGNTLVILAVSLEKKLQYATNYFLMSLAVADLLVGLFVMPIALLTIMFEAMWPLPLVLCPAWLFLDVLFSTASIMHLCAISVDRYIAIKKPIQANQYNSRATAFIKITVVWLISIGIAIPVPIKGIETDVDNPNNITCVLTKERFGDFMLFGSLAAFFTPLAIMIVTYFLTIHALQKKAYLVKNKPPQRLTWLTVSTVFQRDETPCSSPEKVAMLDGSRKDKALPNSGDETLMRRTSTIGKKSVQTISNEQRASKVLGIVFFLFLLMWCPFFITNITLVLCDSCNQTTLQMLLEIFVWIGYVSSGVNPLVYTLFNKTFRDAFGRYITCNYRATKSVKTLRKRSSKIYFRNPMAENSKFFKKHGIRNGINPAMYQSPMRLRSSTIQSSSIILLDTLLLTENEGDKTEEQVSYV

Mu-type opioid receptor = Mu-type opioid receptor (Homo sapiens, UniProt P35372); assay: Displacement of [3H]DAMGO from human mu-opioid receptor stably expressed in HEK cell membrane after 90 mins by scintillation counting method; assay type: cell membranes, HEK293
Sequence of Mu-type opioid receptor (P35372 whole entry): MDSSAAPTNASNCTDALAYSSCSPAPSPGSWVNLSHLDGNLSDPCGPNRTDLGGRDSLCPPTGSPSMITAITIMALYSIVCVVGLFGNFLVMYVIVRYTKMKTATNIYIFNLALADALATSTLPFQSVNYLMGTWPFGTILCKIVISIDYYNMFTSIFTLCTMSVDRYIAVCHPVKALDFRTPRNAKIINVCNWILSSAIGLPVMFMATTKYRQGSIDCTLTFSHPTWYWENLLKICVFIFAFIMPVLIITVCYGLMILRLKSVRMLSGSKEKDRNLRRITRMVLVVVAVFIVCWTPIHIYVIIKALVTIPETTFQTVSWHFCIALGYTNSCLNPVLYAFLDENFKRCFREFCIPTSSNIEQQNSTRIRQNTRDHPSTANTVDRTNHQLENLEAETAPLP

D(1A) dopamine receptor = D(1A) dopamine receptor (Homo sapiens, UniProt P21728); assay: Displacement of [3H]SCH23390 from human recombinant dopamine D1 receptor expressed in HEKT cell membrane after 90 mins by scintillation counting method; assay type: cell membranes
Sequence of D(1A) dopamine receptor (P21728 whole entry): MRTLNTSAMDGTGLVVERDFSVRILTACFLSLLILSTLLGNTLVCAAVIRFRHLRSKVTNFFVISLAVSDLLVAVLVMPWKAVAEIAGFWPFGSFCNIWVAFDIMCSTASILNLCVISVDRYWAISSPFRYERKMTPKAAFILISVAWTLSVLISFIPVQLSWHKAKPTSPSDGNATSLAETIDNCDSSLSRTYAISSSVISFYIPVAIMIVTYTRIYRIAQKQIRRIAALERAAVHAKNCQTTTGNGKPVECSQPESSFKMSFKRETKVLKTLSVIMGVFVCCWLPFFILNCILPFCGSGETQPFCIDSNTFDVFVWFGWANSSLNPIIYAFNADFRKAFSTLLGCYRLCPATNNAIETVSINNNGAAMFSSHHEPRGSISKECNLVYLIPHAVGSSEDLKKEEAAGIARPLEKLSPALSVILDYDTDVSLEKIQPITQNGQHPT

[20] = molecular target: 5-hydroxytryptamine receptor 1B (Homo sapiens) (UniProt P28222); assay: Displacement of [3H]5-CT from human recombinant 5-HT1B receptor stably expressed in HEK cell membrane after 90 mins by scintillation counting method; assay type: cell membranes; conditions: HEK293
[21] = molecular target: Alpha-1D adrenergic receptor (Homo sapiens, UniProt P25100); assay: Displacement of [3H]Prazosin from human recombinant alpha 1D receptor after 90 mins by scintillation counting method
Sequence of Alpha-1D adrenergic receptor (P25100 whole entry): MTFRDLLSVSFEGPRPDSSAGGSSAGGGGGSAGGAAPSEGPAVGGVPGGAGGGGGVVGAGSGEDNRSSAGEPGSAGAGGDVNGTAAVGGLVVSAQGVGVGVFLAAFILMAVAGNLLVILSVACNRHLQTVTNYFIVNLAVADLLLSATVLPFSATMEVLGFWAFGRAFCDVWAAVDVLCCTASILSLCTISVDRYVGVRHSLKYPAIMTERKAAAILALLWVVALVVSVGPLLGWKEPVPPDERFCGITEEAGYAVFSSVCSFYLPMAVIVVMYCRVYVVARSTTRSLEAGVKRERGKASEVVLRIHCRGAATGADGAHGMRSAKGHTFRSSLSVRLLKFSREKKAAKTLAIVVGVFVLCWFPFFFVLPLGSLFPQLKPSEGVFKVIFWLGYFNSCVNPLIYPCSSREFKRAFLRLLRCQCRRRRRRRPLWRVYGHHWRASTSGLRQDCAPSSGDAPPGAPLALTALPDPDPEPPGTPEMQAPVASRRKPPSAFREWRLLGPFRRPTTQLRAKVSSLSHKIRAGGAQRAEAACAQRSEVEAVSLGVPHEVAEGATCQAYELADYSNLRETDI

[22] = molecular target: Alpha-2A adrenergic receptor (Homo sapiens, UniProt P08913); assay: Displacement of [3H]Rauwolscine from human recombinant alpha 2A receptor stably expressed in MDCK cells after 90 mins by scintillation counting method; assay type: cell-based
[23] = molecular target: Beta-2 adrenergic receptor (Homo sapiens) (UniProt P07550); assay: Displacement of [3H]CGP12177 from human recombinant beta 2 receptor expressed in HEK Flp-In cells after 90 mins by scintillation counting method; assay type: cell-based; conditions: HEK293
Rattus norvegicus = organism: Rattus norvegicus; assay: Displacement of [3H]Muscimol from rat brain Gamma-aminobutyric acid type-A receptor after 90 mins by scintillation counting method
[24] = molecular target: Sodium-dependent serotonin transporter (Homo sapiens, UniProt P31645); assay: Displacement of [3H]Citalopram from human serotonin transporter transporter stably expressed in HEK293 cells after 30 mins by neurotransmitter transporter uptake assay; assay type: cell-based
[25] = molecular target: T2, 5-hydroxytryptamine receptor 2B; assay: Antagonist activity at human recombinant 5-HT2B receptor expressed in Flp-In HEK cells in the presence of agonist preincubated for 10 mins by FLIPR based calcium mobilization assay; assay type: functional, cell-based, HEK293

Which results are given for `COc1ccc(CCN(CCCc2ccccc2)CCc2ccc3c(c2)OCO3)cc1OC`?
Ki [1]: 176 nM; inhibition [2]: > 50%; Activity [3]: inactive; Activity [4]: inactive; Activity [5]: inactive; Activity [6]: inactive; Ki [7]: 821 nM; Activity [8]: inactive; Activity [9]: inactive; Activity [10]: inactive; Activity [11]: inactive; Ki [12]: 700 nM; inhibition [13]: > 50%; Activity [14]: inactive; Ki [15]: 242 nM; Ki [16]: 498 nM; Activity [17]: inactive; Activity [18]: inactive; inhibition [19]: > 50%; Ki (Mu-type opioid receptor): 341 nM; Ki (D(1A) dopamine receptor): 1680 nM; Activity [20]: inactive; Ki [21]: 467 nM; Ki [22]: 102 nM; Activity [23]: inactive; Activity (Rattus norvegicus): inactive; Ki [24]: 1000 nM; IC50 [25]: 794 nM
